The text below walks through data of US20230150981A1, “N-HETEROARYLALKYL-2-(HETEROCYCLYL AND HETEROCYCLYLMETHYL) ACETAMIDE DERIVATIVES AS SSTR4 AGONISTS” (Takeda Pharmaceutical Compnay Limited, priority 2020, published 2023).

In one experiment the target is T1, SSTR1 (Homo sapiens, UniProt P30872).
T1 construct: purchased Perkin Elmer ES-520-M400UA; host or cells: CHO-K1 membranes
Nature of the experiment: SSTR1 I-125 somatostatin competition binding assay for selectivity versus SSTR1 (CHO-K1 membranes). The conditions noted are these: competition with I-125 somatostatin, membranes from CHO-K1 overexpressing SSTR1; read-out: SSTR1 Binding pIC50 (converted). Here is the method:
SSTR1 I-125 Somatostatin Competition Binding Assay for Selectivity Versus SSTR1
Membranes from CHO-K1 cells overexpressing SSTR1 are purchased from Perkin Elmer (catalog number ES-520-M400UA). Test compounds are suspended in DMSO and then diluted in assay buffer (25 mM HEPES pH 7.4, 10 mM MgCl2, 1 mM CaCl2), 0.5% BSA) plus 0.4 nM I-125 labeled somatostatin (Perkin Elmer catalog number NEX389). Fifty μL of compound/I-125 somatostatin in assay buffer are added per well to 96-well poly-propylene plate. Then 10 μg of SSTR1 membranes in 50 μL assay buffer are added per well. The plate is incubated for 60 minutes at room temperature. FilterMat A filters (Perkin Elmer catalog number 1450-421) are pre-soaked in 0.5% PEI (Sigma catalog number P3143). The contents of the assay plate are transferred to filters with a TomTech harvester and washed 5 times with 20 mM HEPES, 100 mM NaCl. The filters are dried in a microwave oven then transferred to sample bag containing a scintillator sheet (Perkin Elmer catalog number 1450-441). The scintillator sheets are melted to the filters using a heat block. The filters are then read in a MicroBeta scintillation counter. Binding Ki curves are generated using Activity Base for Screening Data Management and the results are reported as pIC50.

For experiment [1], the target named is T2, SSTR4 (Homo sapiens, UniProt P31391).
T2 construct: host or cells: CHO-K1
T2 sequence (P31391 whole entry): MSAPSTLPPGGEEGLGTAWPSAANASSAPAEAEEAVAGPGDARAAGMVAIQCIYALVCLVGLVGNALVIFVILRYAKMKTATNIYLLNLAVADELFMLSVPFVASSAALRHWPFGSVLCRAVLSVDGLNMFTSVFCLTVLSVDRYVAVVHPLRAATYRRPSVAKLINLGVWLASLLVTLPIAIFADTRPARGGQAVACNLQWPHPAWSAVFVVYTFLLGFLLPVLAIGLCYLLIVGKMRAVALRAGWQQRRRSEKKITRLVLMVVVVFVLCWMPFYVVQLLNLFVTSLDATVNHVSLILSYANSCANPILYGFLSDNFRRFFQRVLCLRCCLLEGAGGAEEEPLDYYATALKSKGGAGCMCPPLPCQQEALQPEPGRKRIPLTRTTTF
The experiment can be described thus: SSTR4 I-125 somatostatin competition binding assay (CHO-K1 membranes). The conditions noted are these: competition with I-125 somatostatin, membranes from CHO-K1 overexpressing SSTR4; read-out: SSTR4 Binding pIC50 (converted). The procedure:
SSTR4 I-125 Somatostatin Competition Binding Assay
Membranes from CHO-K1 cells overexpressing SSTR4 are purchased from Perkin Elmer (catalog number ES-524-M400UA). Test compounds are suspended in DMSO and then diluted in assay buffer (25 mM HEPES pH 7.4, 10 mM MgCl2, 1 mM CaCl2), 0.5% BSA) plus 0.2 nM I-125 labeled somatostatin (Perkin Elmer catalog number NEX389). Fifty μL of compound/I-125 somatostatin in assay buffer are added per well to 96-well poly-propylene plate. Then 1 μg of SSTR4 membranes in 50 μL assay buffer are added per well. The Plate is incubated for 60 minutes at room temperature. FilterMat A filters (Perkin Elmer catalog number 1450-421) are pre-soaked in 0.5% PEI (Sigma catalog number P3143). The contents of the assay plate are transferred to filters with a TomTech harvester and washed 5 times with 20 mM HEPES, 100 mM NaCl. The filters are dried in a microwave oven then transferred to sample bag containing a scintillator sheet (Perkin Elmer catalog number 1450-441). The scintillator sheets are melted to filters using a heat block. The filters are then read in a MicroBeta scintillation counter. Binding Ki curves are generated using Activity Base for Screening Data Management and the results are reported as pIC50.

Experiment [2] has as its target T2, SSTR4. The experiment can be described thus: Inhibition of forskolin stimulated cAMP in CHO-K1 cells overexpressing SSTR4. It is filed as cell-based. The conditions noted are these: read-out: SSTR4 Activity pEC50 (converted). Here is the method:
Inhibition of Forskolin Stimulated cAMP in Cells Overexpressing SSTR4
This cell-based assay measures the ability of compounds to inhibit forskolin stimulated cAMP in CHO-K1 cells overexpressing SSTR4. CHO-K1 cells overexpressing SSTR4 (CHO-SSTR4) are purchased from DiscoveRx (product code 95-0059C2). The CHO-SSTR4 cells are maintained in F12K media with 10% Fetal Bovine Serum (Hyclone), 1% Pen/Strep (Life Technologies), and 800 μg/mL G418 (Life Technologies). To perform the assay, 3000 cells are plated per well in white 384-well plate (Corning 3570) in 50 μL complete media and the cells are allowed to attach for 16 hours in a 37° C., 5% CO2 incubator. The next day, the culture media is removed from the cells and the cells are washed (added then removed) with Krebs Ringer Buffer (ZenBio, KRB-1000 mL). Test compounds are suspended in DMSO and diluted in stimulation buffer: Krebs Ringer Buffer plus 0.5% BSA (Roche), 300 μM IBMX (Sigma), and 350 nM forskolin (Sigma). The cells are incubated in 10 μL compound/stimulation buffer for 30 minutes at room temperature. Cellular cAMP levels are detected with a HTRF LANCE Ultra cAMP kit (Perkin Elmer, catalog number TRF0264).
The assay is performed in accordance with the manufacturer's instructions. Five μL of diluted Eu-W8044 labeled streptavidin (dilution: 1:50 in cAMP Detection Buffer) is added to each well. Then 5 μL of diluted biotin cAMP (dilution: 1:150 in cAMP Detection Buffer) is added to each well. The plates are covered and allowed to incubate for 60 minutes at room temperature on a shaker. HTRF (665 nm/615 nm) is read on a Perkin Elmer ENVISION plate reader. The pEC50 values are generated using Activity Base for Screening Data Management.

T1 sequence (P30872 whole entry): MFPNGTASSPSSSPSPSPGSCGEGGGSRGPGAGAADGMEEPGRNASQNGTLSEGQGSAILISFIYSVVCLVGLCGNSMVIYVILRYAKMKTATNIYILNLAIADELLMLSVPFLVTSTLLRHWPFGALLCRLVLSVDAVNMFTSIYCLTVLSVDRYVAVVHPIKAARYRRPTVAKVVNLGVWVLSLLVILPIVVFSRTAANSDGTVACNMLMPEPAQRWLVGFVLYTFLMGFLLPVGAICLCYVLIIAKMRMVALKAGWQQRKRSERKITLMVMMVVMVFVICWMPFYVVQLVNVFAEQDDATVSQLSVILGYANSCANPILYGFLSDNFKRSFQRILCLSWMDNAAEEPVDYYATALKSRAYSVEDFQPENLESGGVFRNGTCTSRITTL

For the compound `C[C@@H](C(=O)NC(C)(C)c1nccc2ccccc12)[C@@H]1CCCN1C` (racemic) [Example 110, (R)-N-(2-(isoquinolin-1-yl)propan-2-yl)-2-((S)-1-methylpyrrolidin-2-yl)propanamide and (S)-N-(2-(isoquinolin-1-yl)propan-2-yl)-2-((R)-1-methylpyrrolidin-2-yl)propanamide], the figures for the IC50 at SSTR1 and on SSTR4 [1] were 12600 nM and 79.4 nM, respectively. In addition, the EC50 at SSTR4 [2] is 3.98 nM.

In the case of `C[C@@H](C(=O)NC(C)(C)c1nccc2ccccc12)[C@H]1CCCN1C` (racemic) [Example 111, (R)-N-(2-(isoquinolin-1-yl)propan-2-yl)-2-((R)-1-methylpyrrolidin-2-yl)propanamide and (S)-N-(2-(isoquinolin-1-yl)propan-2-yl)-2-((S)-1-methylpyrrolidin-2-yl)propanamide], the IC50 at SSTR1 is 3980 nM; on SSTR4 [1], 25.1 nM. Also, the EC50 on SSTR4 [2] is 3.16 nM.

Regarding `Cc1cccc2c(C(C)(C)NC(=O)C[C@H]3CCCCN3C)nccc12` (single isomer, unassigned) [Example 8], the values for the IC50 on SSTR1 and at SSTR4 [1] were 3980 nM and 50.1 nM, respectively. The EC50 on SSTR4 [2] is 2.51 nM.

`Cc1cccc2c(C(C)(C)NC(=O)C[C@@H]3CCCCN3C)nccc12` (single isomer, unassigned) [Example 9]: the IC50 on SSTR1 was 7940 nM; on SSTR4 [1] it was 126 nM. The EC50 at SSTR4 [2] is 12.6 nM.

As for `CN1CCCC[C@@H]1CC(=O)NC(C)(C)c1nccc2occc12` (single isomer, unassigned) [Example 14], the IC50 on SSTR1 was 25100 nM; on SSTR4 [1], 79.4 nM. Besides, the EC50 on SSTR4 [2] was 6.31 nM.

Turning to `CN1CCCC[C@H]1CC(=O)NC(C)(C)c1nccc2occc12` (single isomer, unassigned) [Example 15], the IC50 on SSTR4 [1] is 316 nM. The EC50 at SSTR4 [2] was 25.1 nM.

With `COc1c(C)cccc1C(C)(C)NC(=O)[C@@H](C)CN1CCC1` (single isomer, unassigned) [Example 147], the IC50 at SSTR4 [1] is 1580 nM. For the same compound, the EC50 at SSTR4 [2] is 63.1 nM.

As for `CN1CCCCC1CC(=O)NC(C)(C)c1nccc2occc12` (stereo not drawn) [Example 13, N-(2-(furo[3,2-c]pyridin-4-yl)propan-2-yl)-2-(1-methylpiperidin-2-yl)acetamide], the IC50 on SSTR4 [1] is 126 nM. Also, the EC50 at SSTR4 [2] was 20 nM.

`CCN1CCCC1CC(=O)NC1(COc2ncccc2C)CC1` (stereo not drawn) [Example 63, 2-(1-ethylpyrrolidin-2-yl)-N-(1-(((3-methylpyridin-2-yl)oxy)methyl)cyclopropyl)acetamide]: the IC50 at SSTR4 [1] is 1580 nM. Further, the EC50 at SSTR4 [2] is 63.1 nM.

As to `CCOc1cccnc1OCC(C)(C)NC(=O)C[C@H]1CCCN1C` [Example 107, (R)-N-(1-((3-ethoxypyridin-2-yl)oxy)-2-methylpropan-2-yl)-2-(1-methylpyrrolidin-2-yl)acetamide], the EC50 on SSTR4 [2] is 200 nM.

`CN1CCC[C@@H]1CC(=O)NC(C)(C)COc1ncccc1C1CC1` [Example 108, (R)-N-(1-((3-cyclopropylpyridin-2-yl)oxy)-2-methylpropan-2-yl)-2-(1-methylpyrrolidin-2-yl)acetamide]: the EC50 on SSTR4 [2] is 20 nM.

With `CCOc1cccnc1OCC(C)(C)NC(=O)C[C@@H]1CCCN1C` [Example 109, (S)-N-(1-((3-ethoxypyridin-2-yl)oxy)-2-methylpropan-2-yl)-2-(1-methylpyrrolidin-2-yl)acetamide], the EC50 at SSTR4 [2] is 631 nM.

Turning to `COc1c(Cl)cccc1C(C)(C)NC(=O)C[C@H]1CCCN1C` [Example 113, (R)-N-(2-(3-chloro-2-methoxyphenyl)propan-2-yl)-2-(1-methylpyrrolidin-2-yl)acetamide], at SSTR4 [2], the EC50 was 79.4 nM.

For `COc1c(F)cccc1C(C)(C)NC(=O)C[C@@H]1CCCN1C` [Example 114, (S)-N-(2-(3-fluoro-2-methoxyphenyl)propan-2-yl)-2-(1-methylpyrrolidin-2-yl)acetamide], the EC50 at SSTR4 [2] was 251 nM.

Turning to `COc1c(F)cccc1C(C)(C)NC(=O)C[C@H]1CCCN1C` [Example 115, (R)-N-(2-(3-fluoro-2-methoxyphenyl)propan-2-yl)-2-(1-methylpyrrolidin-2-yl)acetamide], the EC50 on SSTR4 [2] was 200 nM.

In the case of `COc1c(C)cccc1C(C)(C)NC(=O)C[C@@H]1CCCN1C` [Example 116, (S)-N-(2-(2-methoxy-3-methylphenyl)propan-2-yl)-2-(1-methylpyrrolidin-2-yl)acetamide], the EC50 on SSTR4 [2] is 79.4 nM.

As to `COc1c(C)cccc1C(C)(C)NC(=O)C[C@H]1CCCN1C` [Example 117, (R)-N-(2-(2-methoxy-3-methylphenyl)propan-2-yl)-2-(1-methylpyrrolidin-2-yl)acetamide], at SSTR4 [2], the EC50 is 158 nM.

With `Cc1cccnc1OCC1(NC(=O)CC2CCCCN2C)CC1` (stereo not drawn) [Example 120, 2-(1-methylpiperidin-2-yl)-N-(1-(((3-methylpyridin-2-yl)oxy)methyl)cyclopropyl)acetamide], the EC50 on SSTR4 [2] is 251 nM.

For the compound `Cc1cccnc1OCC1(NC(=O)C[C@H]2CCCN2C)CC1` [Example 121, (R)-N-(1-(((3-methylpyridin-2-yl)oxy)methyl)cyclopropyl)-2-(1-methylpyrrolidin-2-yl)acetamide], the EC50 at SSTR4 [2] was 631 nM.

Take `CN1CCC[C@H]1CC(=O)NC(C)(C)COc1nccc2ccoc12` [Example 122, (S)-N-(1-(furo[2,3-c]pyridin-7-yloxy)-2-methylpropan-2-yl)-2-(1-methylpyrrolidin-2-yl)acetamide]: at SSTR4 [2], the EC50 is 316 nM.

As for `CN1CCC[C@H]1CC(=O)NC(C)(C)COc1ccccn1` [Example 123, (S)-N-(2-methyl-1-(pyridin-2-yloxy)propan-2-yl)-2-(1-methylpyrrolidin-2-yl)acetamide], on SSTR4 [2], the EC50 was 158 nM.

As for `Cc1cnc(OCC(C)(C)NC(=O)C[C@@H]2CCCN2C)c(Cl)c1` [Example 124, (S)-N-(1-((3-chloro-5-methylpyridin-2-yl)oxy)-2-methylpropan-2-yl)-2-(1-methylpyrrolidin-2-yl)acetamide], the EC50 at SSTR4 [2] was 39.8 nM.

With `CN1CCC[C@H]1CC(=O)NC(C)(C)COc1nccc2occc12` [Example 125, (S)-N-(1-(furo[3,2-c]pyridin-4-yloxy)-2-methylpropan-2-yl)-2-(1-methylpyrrolidin-2-yl)acetamide], the EC50 at SSTR4 [2] was 126 nM.

Take `Cc1ccc(C(NC(=O)C[C@@H]2CCCN2C)C(F)(F)F)cc1` (stereo partly drawn) [Example 158, 2-((S)-1-methylpyrrolidin-2-yl)-N-(2,2,2-trifluoro-1-(p-tolyl)ethyl)acetamide]: on SSTR4 [2], the EC50 is 398 nM.

`CN1CCC[C@@H]1CC(=O)NC(C)(C)c1ccccc1F` [Example 159, (R)-N-(2-(2-fluorophenyl)propan-2-yl)-2-(1-methylpyrrolidin-2-yl)acetamide]: the EC50 at SSTR4 [2] was 398 nM.
